This is an account of results in patent US20230159510A1, “NOVEL PRMT5 INHIBITORS” (AMGEN INC., priority 2020, published 2023).

Read-outs that look alike come from different tables or passages of the source.

In one assay the test system is HCT116 MTAP null cells. Description: HCT116 proliferation assay, MTAP null cells (CellTiter-Glo, 6 days). Conditions: read-out: Protif_ HCT116-MTAP null IC50. The format is cell-based. The procedure:
(§1) HCT116 MTAP null and WT cells were seeded in 96-well tissue culture plates in RPMI 1640 media + 10% fetal bovine serum. Plates were incubated overnight at 37° C. and 5% CO2. Cells were then treated with a 8- or 9-point serial dilution of compound, using a top concentration of 1 or 10 µM, 1:3 serial dilution steps and, a DMSO-only control. Cells were incubated in the presence of drug for 6 days. Effects on cell viability were measured with the CellTiter-Glo® Luminescent Cell Viability Assay (Promega) per manufacturer’s recommendation. Assay plates were read on an EnVision™ Multilabel Reader using the Ultra-Sensitive luminescence module.
For orientation: ATP-based viability assays read luminescence as a measure of living cells.

The subject of the next assay is HCT116 WT cells. Description: HCT116 proliferation assay, WT cells (CellTiter-Glo, 6 days). The format is cell-based. Particulars: read-out: Prolif_HCT116-WT IC50. The procedure: as §1

Turning to “2-amino-3-methyl-N-(4-(3-oxetanyl)benzyl)-N-((1R)-1-(2-pyrimidinyl)ethyl)-6-quinolinecarboxamide, 2-amino-3-methyl-N-(4-(3-oxetanyl)benzyl)-N-((1S)-1-(2-pyrimidinyl)ethyl)-6-quinolinecarboxamide [Example 802]”, the figures for the IC50 with HCT116 MTAP null cells and with HCT116 WT cells were 393 nM and 9300 nM, respectively.

In the case of “2-amino-N-((1S,2S)-2-methoxy-2,3-dihydro-1H-inden-1-yl)-3-methyl-N-((5-(trifluoromethyl)-2-pyridinyl)methyl)-6-quinolinecarboxamide [Example 753]”, the IC50 (commonly the concentration that inhibits the measured activity by half) was 408 nM with HCT116 MTAP null cells and above 10000 nM in the assay with HCT116 WT cells.

In the case of “2-amino-N-((3R,4S)-3-fluorotetrahydro-2H-pyran-4-yl)-3-methyl-N-((5-(trifluoromethyl)-2-pyridinyl)methyl)-6-quinolinecarboxamide and 2-amino-N-((3S,4R)-3-fluorotetrahydro-2H-pyran-4-yl)-3-methyl-N-((5-(trifluoromethyl)-2-pyridinyl)methyl)-6-quinolinecarboxamide [Example 747]”, the half-inhibitory concentration (IC50) in the assay with HCT116 MTAP null cells was determined as 385 nM; with HCT116 WT cells, 5260 nM.

Regarding `CO[C@@H]1COCC[C@H]1N(Cc1ccc(C(F)(F)F)cn1)C(=O)c1ccc2nc(N)c(C)cc2c1` (mixture of isomers) [Example 748, 2-amino-N-((3R,4S)-3-methoxytetrahydro-2H-pyran-4-yl)-3-methyl-N-((5-(trifluoromethyl)-2-pyridinyl)methyl)-6-quinolinecarboxamide and 2-amino-N-((3S,4R)-3-methoxytetrahydro-2H-pyran-4-yl)-3-methyl-N-((5-(trifluoromethyl)-2-pyridinyl)methyl)-6-quinolinecarboxamide], the IC50 with HCT116 MTAP null cells stood at 84 nM; in the assay on HCT116 WT cells it was 2620 nM.

With `Cc1cc2cc(C(=O)N(Cc3ccc(C(F)(F)F)cn3)[C@@H]3COCC[C@H]3F)ccc2nc1N` (mixture of isomers) [Example 749, 2-amino-N-((3R,4R)-4-fluorotetrahydro-2H-pyran-3-yl)-3-methyl-N-((5-(trifluoromethyl)-2-pyridinyl)methyl)-6-quinolinecarboxamide and 2-amino-N-((3S,4S)-4-fluorotetrahydro-2H-pyran-3-yl)-3-methyl-N-((5-(trifluoromethyl)-2-pyridinyl)methyl)-6-quinolinecarboxamide], the half-inhibitory concentration (IC50) in the assay on HCT116 MTAP null cells (HCT116-MTAP null, 144 h) worked out at 95 nM; in the assay on HCT116 WT cells (Homo sapiens, HCT-116, 144 h) it was 2150 nM.

As to `Cc1cc2cc(C(=O)N(Cc3ccc(C(F)(F)F)cn3)[C@@H]3CCOC[C@H]3O)ccc2nc1N` (mixture of isomers) [Example 803, 2-amino-N-((3R,4S)-3-hydroxytetrahydro-2H-pyran-4-yl)-3-methyl-N-((5-(trifluoromethyl)-2-pyridinyl)methyl)-6-quinolinecarboxamide and 2-amino-N-((3S,4R)-3-hydroxytetrahydro-2H-pyran-4-yl)-3-methyl-N-((5-(trifluoromethyl)-2-pyridinyl)methyl)-6-quinolinecarboxamide], the IC50 was 412 nM with HCT116 MTAP null cells (HCT116-MTAP null, 144 h) and above 10000 nM with HCT116 WT cells (Homo sapiens, HCT-116, 144 h).

`CO[C@@H]1CCCC[C@H]1N(Cc1ccc(C(F)(F)F)cn1)C(=O)c1cnc2nc(N)c(Br)cc2c1` (racemic) [Example 798, 7-amino-6-bromo-N-((1R,2R)-2-methoxycyclohexyl)-N-((5-(trifluoromethyl)pyridin-2-yl)methyl)-1,8-naphthyridine-3-carboxamide]: the half-inhibitory concentration (IC50) with HCT116 MTAP null cells (HCT116-MTAP null, 144 h) is 250 nM; with HCT116 WT cells (Homo sapiens, HCT-116, 144 h), 6960 nM.

Take `CO[C@@H]1CCOC[C@H]1N(Cc1ccc(C(F)(F)F)cn1)C(=O)c1ccc2nc(N)c(C)cc2c1` (racemic) [Example 833, 2-Amino-N-((3R,4R)-4-methoxytetrahydro-2H-pyran-3-yl)-3-methyl-N-((5-(trifluoromethyl)-2-pyridinyl)methyl)-6-quinolinecarboxamide and 2-amino-N-((3S,4S)-4-methoxytetrahydro-2H-pyran-3-yl)-3-methyl-N-((5-(trifluoromethyl)-2-pyridinyl)methyl)-6-quinolinecarboxamide]: the half-inhibitory concentration (IC50) in the assay with HCT116 MTAP null cells (HCT116-MTAP null, 144 h) came to 39 nM; in the assay with HCT116 WT cells (Homo sapiens, HCT-116, 144 h), 1190 nM.

Turning to `CC[C@H](c1ncccn1)N(Cc1ccc(C(F)(F)F)cn1)C(=O)c1cnc2nc(N)c(Br)cc2c1` (single isomer, unassigned) [Example 443], the IC50 in the assay with HCT116 MTAP null cells (HCT116-MTAP null, 144 h) is 96 nM; in the assay with HCT116 WT cells (Homo sapiens, HCT-116, 144 h), 2080 nM.

With `Cc1cc2cc(C(=O)N(Cc3ccc(C(F)(F)F)cn3)[C@H](C)c3ccc(F)cn3)ccc2nc1N` (single isomer, unassigned) [Example 484], the half-inhibitory concentration (IC50) in the assay with HCT116 MTAP null cells (HCT116-MTAP null, 144 h) amounted to 59 nM; with HCT116 WT cells (Homo sapiens, HCT-116, 144 h), 2330 nM.

On to `Cc1cc2cc(C(=O)N(Cc3ccc(C(F)(F)F)cn3)[C@@H](C)c3ccc(F)cn3)ccc2nc1N` (single isomer, unassigned) [Example 485], for which the half-maximal inhibitory concentration (IC50) in the assay with HCT116 MTAP null cells (HCT116-MTAP null, 144 h) was determined as 734 nM; in the assay on HCT116 WT cells (Homo sapiens, HCT-116, 144 h) it was 4680 nM.

For `Cc1cc2cc(C(=O)N(Cc3ncccc3F)[C@H]3COc4cc(C(F)(F)F)ccc43)ccc2nc1N` (single isomer, unassigned) [Example 524], the 50% inhibitory concentration (IC50) in the assay on HCT116 MTAP null cells (HCT116-MTAP null, 144 h) is 135 nM; in the assay with HCT116 WT cells (Homo sapiens, HCT-116, 144 h) it was 2350 nM.

Take `COc1ccc(CN(C[C@H](OC)C(F)(F)F)C(=O)c2ccc3nc(N)c(C)cc3c2)nn1` (single isomer, unassigned) [Example 774]: the IC50 in the assay with HCT116 MTAP null cells (HCT116-MTAP null, 144 h) was determined as 139 nM; in the assay on HCT116 WT cells (Homo sapiens, HCT-116, 144 h), 5210 nM.

As for `COc1ccc(CN(C(=O)c2ccc3nc(N)c(C)cc3c2)[C@@H](c2ncccn2)C2CC2)nn1` (single isomer, unassigned) [Example 775], the IC50 in the assay on HCT116 MTAP null cells (HCT116-MTAP null, 144 h) was 50 nM; in the assay on HCT116 WT cells (Homo sapiens, HCT-116, 144 h), 1680 nM.

With `Cc1cc2cc(C(=O)N(Cc3ccc(C(F)(F)F)cn3)[C@@H]3CC(F)(F)C[C@H]3O)ccc2nc1N` (single isomer, unassigned) [Example 780], the IC50 with HCT116 MTAP null cells (HCT116-MTAP null, 144 h) came to 144 nM; in the assay on HCT116 WT cells (Homo sapiens, HCT-116, 144 h), 1800 nM.

For the molecule `Cc1cc2cc(C(=O)N(Cc3ccc(C(F)(F)F)cn3)[C@@H]3CCOC[C@H]3F)ccc2nc1N` (single isomer, unassigned) [Example 781], the half-inhibitory concentration (IC50) is 260 nM with HCT116 MTAP null cells (HCT116-MTAP null, 144 h) and 3400 nM in the assay on HCT116 WT cells (Homo sapiens, HCT-116, 144 h).

Take `CO[C@@H]1CCOC[C@H]1N(Cc1ccc(C(F)(F)F)cn1)C(=O)c1ccc2nc(N)c(C)cc2c1` (single isomer, unassigned) [Example 782]: the concentration for half-maximal inhibition (IC50) is 17 nM with HCT116 MTAP null cells (HCT116-MTAP null, 144 h) and 460 nM in the assay on HCT116 WT cells (Homo sapiens, HCT-116, 144 h).

With `Cc1cc2cc(C(=O)N(Cc3ncccc3Cl)[C@H](C)c3ncccn3)c(F)cc2nc1N` (single isomer, unassigned) [Example 784], the IC50 with HCT116 MTAP null cells (HCT116-MTAP null, 144 h) worked out at 261 nM; in the assay with HCT116 WT cells (Homo sapiens, HCT-116, 144 h), 4700 nM.

For the molecule `COc1ccc(CN(C(=O)c2ccc3nc(N)c(C)cc3c2)[C@H](C)c2ncn(C)n2)nn1` (single isomer, unassigned) [Example 785], the IC50 in the assay on HCT116 MTAP null cells (HCT116-MTAP null, 144 h) was 123 nM; with HCT116 WT cells (Homo sapiens, HCT-116, 144 h) it was 2600 nM.

Consider `COc1ccc(CN(C(=O)c2ccc3nc(N)c(C)cc3c2)[C@H](C)c2ncccn2)cn1` (single isomer, unassigned) [Example 786], for which the IC50 is 322 nM in the assay with HCT116 MTAP null cells (HCT116-MTAP null, 144 h) and above 10000 nM in the assay on HCT116 WT cells (Homo sapiens, HCT-116, 144 h).

As for `C[C@H](c1cscn1)N(Cc1ccc(C(F)(F)F)nn1)C(=O)c1cnc2nc(N)c(Br)cc2c1` (single isomer, unassigned) [Example 787], the half-maximal inhibitory concentration (IC50) with HCT116 MTAP null cells (HCT116-MTAP null, 144 h) stood at 59 nM; in the assay with HCT116 WT cells (Homo sapiens, HCT-116, 144 h), 1740 nM.

In the case of `CC[C@H](c1ncccn1)N(Cc1ccc(C(F)(F)F)cn1)C(=O)c1cnc2nc(N)c(I)cc2c1` (single isomer, unassigned) [Example 788], the IC50 in the assay with HCT116 MTAP null cells (HCT116-MTAP null, 144 h) came to 64 nM; in the assay on HCT116 WT cells (Homo sapiens, HCT-116, 144 h), 1590 nM.

On to `COC[C@@H](C1CC1)N(Cc1ccc(C(F)(F)F)cn1)C(=O)c1ccc2nc(N)c(C)cc2c1` (single isomer, unassigned) [Example 809], for which the IC50 in the assay with HCT116 MTAP null cells (HCT116-MTAP null, 144 h) amounted to 15 nM; with HCT116 WT cells (Homo sapiens, HCT-116, 144 h) it was 362 nM.

For the molecule `COC[C@H](C1CC1)N(Cc1ccc(C(F)(F)F)cn1)C(=O)c1ccc2nc(N)c(C)cc2c1` (single isomer, unassigned) [Example 810], the IC50 in the assay with HCT116 MTAP null cells (HCT116-MTAP null, 144 h) turned out to be 594 nM; in the assay with HCT116 WT cells (Homo sapiens, HCT-116, 144 h), 5400 nM.

Consider `Cc1cc2cc(C(=O)N(Cc3ccc(C(F)(F)F)cn3)[C@H](C)c3cccc(C#N)n3)ccc2nc1N` (single isomer, unassigned) [Example 811], for which the concentration for half-maximal inhibition (IC50) in the assay on HCT116 MTAP null cells (HCT116-MTAP null, 144 h) is 422 nM; in the assay with HCT116 WT cells (Homo sapiens, HCT-116, 144 h) it was above 10000 nM.

In the case of `Cc1cc2cc(C(=O)N(Cc3ccc(C(F)(F)F)cn3)[C@@H]3CCC[C@H]3C#N)ccc2nc1N` (single isomer, unassigned) [Example 812], the IC50 in the assay on HCT116 MTAP null cells (HCT116-MTAP null, 144 h) came to 43 nM; in the assay on HCT116 WT cells (Homo sapiens, HCT-116, 144 h), 1040 nM.

In the case of `Cc1cc2cc(C(=O)N(Cc3ccc(C(F)(F)F)nn3)[C@@H]3CCCn4ccnc43)ccc2nc1N` (single isomer, unassigned) [Example 813], the 50% inhibitory concentration (IC50) is 98 nM in the assay with HCT116 MTAP null cells (HCT116-MTAP null, 144 h) and 2630 nM with HCT116 WT cells (Homo sapiens, HCT-116, 144 h).

For `Cc1cc2cc(C(=O)N(Cc3ccc(C(F)(F)F)cn3)[C@@H]3COCc4ncccc43)ccc2nc1N` (single isomer, unassigned) [Example 814], the half-maximal inhibitory concentration (IC50) in the assay on HCT116 MTAP null cells (HCT116-MTAP null, 144 h) amounted to 62 nM; in the assay on HCT116 WT cells (Homo sapiens, HCT-116, 144 h), 1760 nM.

For `Cc1cc2cc(C(=O)N(Cc3ccc(C(F)(F)F)cn3)[C@@H]3CCOC[C@H]3O)ccc2nc1N` (single isomer, unassigned) [Example 815], the half-inhibitory concentration (IC50) in the assay on HCT116 MTAP null cells (HCT116-MTAP null, 144 h) is 250 nM; with HCT116 WT cells (Homo sapiens, HCT-116, 144 h), 5150 nM.

Regarding `Cc1cc2cc(C(=O)N(Cc3ccc(C(F)(F)F)cn3)[C@H]3CCC[C@@H]3OC(F)F)ccc2nc1N` (single isomer, unassigned) [Example 817], the concentration for half-maximal inhibition (IC50) in the assay on HCT116 MTAP null cells (HCT116-MTAP null, 144 h) came to 369 nM; in the assay on HCT116 WT cells (Homo sapiens, HCT-116, 144 h), 1310 nM.

Turning to `C#CCCCN(Cc1ccc(C(F)(F)F)cn1)C(=O)c1ccc2nc(N)c(C)cc2c1` [Example 692, 2-amino-3-methyl-N-pent-4-ynyl-N-[[5-(trifluoromethyl)-2-pyridyl]methyl] quinoline-6-carboxamide], the IC50 in the assay on HCT116 MTAP null cells (HCT116-MTAP null, 144 h) was above 1000 nM.
